Source: patent US20080039496A1, “Method of Modulating Neurite Outgrowth by the use of a Galanin-3 Receptor Antagonist” (priority 2006, published 2008)

Assays:
[1] = test system: PC12 sub-clone, Neuroscreen-1 (NS-1) cells; experiment: Neurite outgrowth assay in NS-1 cells (Example 1); format: cell-based; conditions: NS-1 cells with 200 ng/mL NGF, fixed 24 hr post treatment, various concentrations; dose-dependent
Method: PC12 sub-clone, Neuroscreen-1 (NS-1) cells were plated into collagen I-coated 96 well plate (BD BioCoat) at 5,000 cells per well in RPMI complete medium with 200 ng/mL NGF. 48 hr later NS-1 cells were treated with HT-2157 at various concentrations and were subsequently fixed 24 hr post treatment.
(§1) Following fixation, Cellomics's Neurite Outgrowth reagent kit was used to label cells by a primary antibody specific for neurons. The cell nuclei were labeled by Hoechst 33342. Fluorescently labeled cells were then imaged and analyzed using Cellomics's Neurite Outgrowth and Extended Neurite Outgrowth Bioapplications on the ArrayScan HCS Reader. Images for quantitative HCS analysis were collected on the ArrayScan HCS Reader using a 10× or a 20× microscope objective.

[2] = test system: cryopreserved mouse hippocampal neurons; experiment: Neurite outgrowth assay in cryopreserved mouse hippocampal neurons (Example 1); format: cell-based; conditions: fixed 48 hr post treatment, various concentrations
Method: The cryopreserved mouse hippocampal neurons were plated into poly-L-lysine-coated 96 well plate (BD BioCoat) at 35,000 cells per well in Neurobasal/B27 medium (Invitrogen). 24 hr later the neurons were treated with HT-2157 at various concentrations and were subsequently fixed 48 hr post treatment.
as §1

Hes5 [3] = experiment: qPCR analysis of Hes5 expression in NS-1 cells; format: cell-based
Method: NS-1 cells were plated into collagen I-coated 6 well plate (BD BioCoat) at 150,000 cells per well. 48 hr post NGF treatment at 200 ng/mL NS-1 cells were treated with HT-2157 for 2 hr, 4 hr or 24 hr at concentrations as indicated followed by RNA isolation using Ambion's RNAqueous-4PCR kit. Reverse transcription reactions were performed with Taqman reverse transcription reagents (Applied Biosystems). qPCR was performed on a 7900 real-time PCR machine using Optical 96 well reaction plates (Applied Biosystems). Expression levels were normalized to mouse TBP transcript levels.

NS1 cells = experiment: Neurite outgrowth assay in NS1 cells (Example 2); format: cell-based; conditions: 3 μM and 10 μM
Method: Neuroscreen 1 (NS1) Cells (Cellomics Inc.) were cultured on collagen type I coated 75 cm^2 plastic flasks (Biocoat, Becton Dickinson) in a humidified incubator at 37° C. in 5% CO2. Cells were cultured in RPMI complete cell culture medium (Cambrex) supplemented with 10% heat-inactivated horse serum (Invitrogen), 5% heat-inactivated fetal bovine serum (Cellgro), and 2 mM L-glutamine (Cambrex). For expansion, the cells were trypsinized and split at 80% confluence. The cell culture media was changed every 2 to 3 days.
NS1 cells were stimulated with nerve growth factor to induce differentiation into a neuronal phenotype. NS1 cells were harvested as if they were being passaged and then counted using a Coulter counter (Becton Dickinson Coulter Z1). Cells were seeded in 96-well collagen I coated plates at a density of 2000 cells per well in volume of 200 μl. RPMI media was supplemented with 200 ng/ml nerve growth factor (NGFβ, Sigma). NS1 cells were incubated for 72 hours to allow differentiation to a neuronal phenotype. NGFβ was then diluted to 50 ng/ml and the cells were treated with siRNA or HT-2157, respectively.
(§2) Neurite outgrowth assays were performed using the Cellomics Arrayscan II Vti HCS scanner. Cells were stained using the HitKit™ HCS reagent kit (Cellomics) according to the manufactures specifications. The assay is based on immunofluorescence using an antibody that has been validated to specifically label both neurites and neuronal cell bodies. Briefly, cells were fixed in 3.7% formaldehyde and nuclei stained with Hoechst dye. Cells were then washed in neurite outgrowth buffer and neurites stained with Cellomics' proprietary primary antibody for neurite outgrowth high content screening. After 1 hour of incubation with the primary antibody, the cells were washed again and then incubated with fluorescently labeled secondary antibody solution for 1 hour. Antibody-stained 96-well plates were store at 4° C. in the dark until scanning. Plates were scanned using Cellomics ArrayScan II Vti HCS scanner. The neurite outgrowth assay uses two channels to carry out the scan. Channel 1 detects the Hoechst Dye and is used by the software to identify cells and for automated focusing. Channel 2 detects the FITC fluorescence of the secondary antibody and is used by the software to calculate all data generated in reference to neurites.

GalR3 = experiment: Western blot analysis of GalR3 expression in NS1 cells; format: cell-based; conditions: 24 hours after treatment
Method: Cultured NS1 cells were homogenized in RIPA buffer (Upstate Biotechnology) containing proteinase inhibitors (Roche). Protein concentrations were determined using the Biorad DC protein assay kit (Biorad). 20 μg of protein-lysate were separated by SDS poly-acrylamide gel electrophoresis (SDS-PAGE) and blotted onto nylon membranes. Western blots were blocked with 5% non-fat dry milk in Tris-buffered saline containing 0.05% Tween 20 (TBS-T) and the primary antibodies applied at 4° Celsius over night. Blots were probed with horseradish peroxidase (HRP) coupled secondary antibodies at room temperature for 1 h, and developed using the SuperSignal® West Pico Chemiluminescent Substrate (Pierce). We used a polyclonal antibody against GalR3 (Alpha Diagnostics). Blots were normalized to β-actin (Sigma).

BDNF = experiment: qPCR analysis of BDNF mRNA in cultured mouse hippocampal neurons; format: cell-based; conditions: 10 μM, vs vehicle
Method: (§3) C57B1/6 or CD1 mouse embryonic (E17.5) hippocampal neurons were purchased from QBM Cell Science (University of Ottawa, Ontario, Canada). Neurons were cultured on poly-D-lysine coated 96 or 24 well plates in serum free Neurobasal medium supplemented with 2% B27, 500 μM L-glutamine, and 1 mM pyruvate. Cells were plated at a density of 20,000 per well on 96 well plates (for neurite outgrowth assays), and at 100,000 per well on […] (for qPCR analysis). For neurite outgrowth assays, neurons were cultured for 2 days and then stimulated for 24 hours. For gene-expression assays, neurons were grown for 8 days and then stimulated with HT-2157 or Vehicle.
(§4) RNA was isolated from cultured neurons at the indicated timepoint after HT-2157 treatment. Per well, one RNA preparation was performed using the QIAgen RNeasy kit (Qiagen) according to the manufacturer's specifications. cDNA was generated using TaqMan Reverse transcriptase kit (Applied Biosystems). 2 real-time PCR reactions per RNA/cDNA replication were performed using the ABI prism and SDS 2.1 software. ABI assays on demand (Applied Biosystems) were used to test the mRNA levels of BDNF, NGFβ, and Hes5. The average CT value for each cDNA sample was determined. Data was then normalized to TATA binding protein (TBP) and ΔCT values were determined. mRNA levels were normalized to a vehicle (0.2% DMSO) treated control group.

NGFβ = experiment: qPCR analysis of NGFβ mRNA in cultured mouse hippocampal neurons; format: cell-based; conditions: 10 μM, vs vehicle
Method: as §3, §4

Hes5 [4] = experiment: qPCR analysis of Hes5 mRNA in cultured mouse hippocampal neurons; format: cell-based; design: dose or concentration left out as unconfirmed; conditions: vs vehicle
Method: as §3, §4

5-HT transmission = conditions: Rowley et al. Br J Pharmacol 2005, P125; cited from earlier work
5-HT = conditions: Rowley et al. Br J Pharmacol 2005, P127; cited from earlier work
[5] = test system: cultured mouse hippocampal neurons; experiment: Neurite outgrowth assay in cultured mouse hippocampal neurons (Example 2); format: cell-based; conditions: 100 ng/ml for 24 hours
Method: as §3, §2

O=C1C(=Nc2cccc(C(F)(F)F)c2)c2ccccc2N1c1ccccc1 [HT-2157]
neurite branch point [1]: increase | neurite count [1]: increase | neurite length [1]: increase | neurite length [2]: significantly increased | mRNA levels of Hes5 (Hes5 [3]; NS1 cells, 2 hours and 4 hours after treatment with 3 or 10 μM, compared to vehicle): reduced | Hes5 mRNA (Hes5 [3]; NS1 cells, 24 hours after treatment): returned to baseline levels | Hes5 expression (Hes5 [3]; NS-1 cells, treatment at 2 hr and 4 hr, time- and dose-dependent): down-regulated | average neurite length per cell (NS1 cells): increase | number of neurite branch points per cell (NS1 cells): increase | number of neurites per cell (neurite count) (NS1 cells): increase | total neurite length per cell (NS1 cells): increase | Expression of GalR3 (GalR3): not affected | BDNF mRNA levels (BDNF): significantly increased | NGFβ mRNA levels (NGFβ): significantly increased | Hes5 mRNA levels (Hes5 [4]): significantly reduced | inhibitory effect of Galanin on 5-HT transmission (5-HT transmission): antagonize | extracellular levels of 5-HT in various brain regions (5-HT): increase

NGFβ: nerve growth factor β, neurotrophin (Sigma)
branch points [5]: increased | neurite length [5]: increased | number of neurites per cell [5]: increased
